According to patent US4110327A, “2,3 Diketo-piperazinocarbonylamino alkanoic acids and derivatives” (Toyama Chemical Co., Ltd., priority 1974, dated 1978):
Converted amounts (≈) assume the structure as drawn.

Legend:
Assay type in all cases: cell-based
Escherichia coli NIHJ = assay: MIC against standard strain, plate method; conditions: unit assumed
In short: (§1)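 Agar plate dilution MIC in heart infusion agar, pH 7.4. Inoculum was 10^4 cells per plate, from a suspension of 10^6 cells/ml.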

Klebsiella pneumoniae [1] = assay: MIC against standard strain, plate method; conditions: unit assumed
In short: as §1

Proteus vulgaris 3027 = assay: MIC against standard strain, plate method; conditions: Proteus vulgaris 3027, standard strain; unit assumed
In short: as §1

[2] = system: Pseudomonas aeruginosa I.F.O.; assay: MIC against standard strain, plate method; conditions: unit assumed
In short: as §1

[3] = system: Staphylococcus aureus 209p; assay: MIC against standard strain, plate method; conditions: unit assumed
In short: as §1

Staphylococcus aureus = assay: MIC against clinical isolates; conditions: unit assumed
Escherichia coli = assay: MIC against clinical isolates; conditions: unit assumed
Pseudomonas aeruginosa = assay: MIC against clinical isolates; conditions: unit assumed
Klebsiella pneumoniae [4] = assay: MIC against clinical isolates; conditions: unit assumed
Proteus mirabilis = assay: MIC against clinical isolates; conditions: clinical isolate, unit assumed
Proteus morganii = assay: MIC against clinical isolates; conditions: clinical isolate, unit assumed
Proteus vulgaris = assay: MIC against clinical isolates; conditions: clinical isolate, unit assumed
Proteus rettgeri = assay: MIC against clinical isolates; conditions: clinical isolate, unit assumed

## CC(=O)OCC1=C(C(=O)O)N2C(=O)[C@@H](NC(=O)[C@H](N)c3ccccc3)[C@H]2SC1 [Sodium Cephaloglycin, SodiumCephaloglycin, reference compound]
Escherichia coli NIHJ
  MIC: < 1.57 mg/L
Klebsiella pneumoniae [1]
  MIC: 100 mg/L
Proteus vulgaris 3027
  MIC: < 1.57 mg/L
[2]
  MIC: > 200 mg/L
[3]
  MIC: < 1.57 mg/L
Staphylococcus aureus; clinical isolate F-1
  MIC: 3.13 mg/L
Staphylococcus aureus; clinical isolate F-2
  MIC: 1.56 mg/L
Staphylococcus aureus; clinical isolate F-3
  MIC: 1.56 mg/L
Staphylococcus aureus; clinical isolate F-4
  MIC: 3.13 mg/L
Staphylococcus aureus; clinical isolate F-5
  MIC: 25 mg/L
Staphylococcus aureus; clinical isolate MS 8588
  MIC: 3.13 mg/L
Staphylococcus aureus; clinical isolate MS 8596
  MIC: 1.56 mg/L
Staphylococcus aureus; clinical isolate MS 8619
  MIC: 1.56 mg/L
Staphylococcus aureus; clinical isolate MS 8684
  MIC: 1.56 mg/L
Staphylococcus aureus; clinical isolate MS 8713
  MIC: 3.13 mg/L
Escherichia coli; clinical isolate GN 3435
  MIC: 1.56 mg/L
Escherichia coli; clinical isolate GN 3452
  MIC: 3.13 mg/L
Escherichia coli; clinical isolate GN 3465
  MIC: 12.5 mg/L
Escherichia coli; clinical isolate GN 3481
  MIC: 3.13 mg/L
Escherichia coli; clinical isolate GN 3611
  MIC: 25 mg/L
Escherichia coli; clinical isolate K-1
  MIC: 1.56 mg/L
Escherichia coli; clinical isolate K-2
  MIC: 1.56 mg/L
Escherichia coli; clinical isolate K-3
  MIC: 25 mg/L
Escherichia coli; clinical isolate K-4
  MIC: 12.5 mg/L
Pseudomonas aeruginosa; clinical isolate GN 82
  MIC: > 200 mg/L
Pseudomonas aeruginosa; clinical isolate GN 163
  MIC: > 200 mg/L
Pseudomonas aeruginosa; clinical isolate GN 221
  MIC: > 200 mg/L
Pseudomonas aeruginosa; clinical isolate GN 244
  MIC: > 200 mg/L
Pseudomonas aeruginosa; clinical isolate GN 376
  MIC: > 200 mg/L
Pseudomonas aeruginosa; clinical isolate GN 383
  MIC: > 200 mg/L
Pseudomonas aeruginosa; clinical isolate GN 1035
  MIC: > 200 mg/L
Pseudomonas aeruginosa; clinical isolate GN 1091
  MIC: > 200 mg/L
Pseudomonas aeruginosa; clinical isolate GN 2565
  MIC: > 200 mg/L
Pseudomonas aeruginosa; clinical isolate GN 2987
  MIC: > 200 mg/L
Pseudomonas aeruginosa; clinical isolate S-1
  MIC: > 200 mg/L
Pseudomonas aeruginosa; clinical isolate S-2
  MIC: > 200 mg/L
Pseudomonas aeruginosa; clinical isolate S-3
  MIC: > 200 mg/L
Pseudomonas aeruginosa; clinical isolate S-4
  MIC: > 200 mg/L
Klebsiella pneumoniae [4]; clinical isolate GN 917
  MIC: 1.56 mg/L
Klebsiella pneumoniae [4]; clinical isolate GN 4081
  MIC: 3.13 mg/L
Klebsiella pneumoniae [4]; clinical isolate GN 4117
  MIC: 3.13 mg/L
Proteus mirabilis
  MIC: 3.13 mg/L
Proteus morganii
  MIC: 1.56 mg/L
Proteus vulgaris
  MIC: 50 mg/L
Proteus rettgeri
  MIC: 50 mg/L

## CN1CCN(C(=O)NC(C(=O)NC2C(=O)N3C(C(=O)O)=C(CSc4nnnn4C)CSC23)c2ccccc2)C(=O)C1=O (single isomer, unassigned) [compound 63]
Escherichia coli NIHJ
  MIC: < 0.79 mg/L
Klebsiella pneumoniae [1]
  MIC: < 0.79 mg/L
Proteus vulgaris 3027
  MIC: 1.57 mg/L (≈ 2.55 µM)
[2]
  MIC: 25 mg/L (≈ 40.6 µM)
[3]
  MIC: < 0.79 mg/L
Staphylococcus aureus; clinical isolate F-1
  MIC: 3.13 mg/L (≈ 5.08 µM)
Staphylococcus aureus; clinical isolate F-2
  MIC: 0.78 mg/L (≈ 1.27 µM)
Staphylococcus aureus; clinical isolate F-3
  MIC: 1.56 mg/L (≈ 2.53 µM)
Staphylococcus aureus; clinical isolate F-4
  MIC: 1.56 mg/L (≈ 2.53 µM)
Staphylococcus aureus; clinical isolate F-5
  MIC: 12.5 mg/L (≈ 20.3 µM)
Staphylococcus aureus; clinical isolate MS 8588
  MIC: 1.56 mg/L (≈ 2.53 µM)
Staphylococcus aureus; clinical isolate MS 8596
  MIC: 1.56 mg/L (≈ 2.53 µM)
Staphylococcus aureus; clinical isolate MS 8619
  MIC: 0.78 mg/L (≈ 1.27 µM)
Staphylococcus aureus; clinical isolate MS 8684
  MIC: 1.56 mg/L (≈ 2.53 µM)
Staphylococcus aureus; clinical isolate MS 8713
  MIC: 1.56 mg/L (≈ 2.53 µM)
Escherichia coli; clinical isolate GN 3435
  MIC: 3.13 mg/L (≈ 5.08 µM)
Escherichia coli; clinical isolate GN 3452
  MIC: 12.5 mg/L (≈ 20.3 µM)
Escherichia coli; clinical isolate GN 3465
  MIC: 25 mg/L (≈ 40.6 µM)
Escherichia coli; clinical isolate GN 3481
  MIC: 3.13 mg/L (≈ 5.08 µM)
Escherichia coli; clinical isolate GN 3611
  MIC: 100 mg/L (≈ 162 µM)
Escherichia coli; clinical isolate K-1
  MIC: 3.13 mg/L (≈ 5.08 µM)
Escherichia coli; clinical isolate K-2
  MIC: 6.25 mg/L (≈ 10.2 µM)
Escherichia coli; clinical isolate K-3
  MIC: 50 mg/L (≈ 81.2 µM)
Escherichia coli; clinical isolate K-4
  MIC: 6.25 mg/L (≈ 10.2 µM)
Pseudomonas aeruginosa; clinical isolate GN 82
  MIC: 50 mg/L (≈ 81.2 µM)
Pseudomonas aeruginosa; clinical isolate GN 163
  MIC: 25 mg/L (≈ 40.6 µM)
Pseudomonas aeruginosa; clinical isolate GN 221
  MIC: 25 mg/L (≈ 40.6 µM)
Pseudomonas aeruginosa; clinical isolate GN 244
  MIC: 50 mg/L (≈ 81.2 µM)
Pseudomonas aeruginosa; clinical isolate GN 376
  MIC: 50 mg/L (≈ 81.2 µM)
Pseudomonas aeruginosa; clinical isolate GN 383
  MIC: 25 mg/L (≈ 40.6 µM)
Pseudomonas aeruginosa; clinical isolate GN 1035
  MIC: 100 mg/L (≈ 162 µM)
Pseudomonas aeruginosa; clinical isolate GN 1091
  MIC: 50 mg/L (≈ 81.2 µM)
Pseudomonas aeruginosa; clinical isolate GN 2565
  MIC: 50 mg/L (≈ 81.2 µM)
Pseudomonas aeruginosa; clinical isolate GN 2987
  MIC: 25 mg/L (≈ 40.6 µM)
Pseudomonas aeruginosa; clinical isolate S-1
  MIC: 100 mg/L (≈ 162 µM)
Pseudomonas aeruginosa; clinical isolate S-2
  MIC: 100 mg/L (≈ 162 µM)
Pseudomonas aeruginosa; clinical isolate S-3
  MIC: 100 mg/L (≈ 162 µM)
Pseudomonas aeruginosa; clinical isolate S-4
  MIC: 100 mg/L (≈ 162 µM)
Klebsiella pneumoniae [4]; clinical isolate GN 917
  MIC: 3.13 mg/L (≈ 5.08 µM)
Klebsiella pneumoniae [4]; clinical isolate GN 4081
  MIC: 6.25 mg/L (≈ 10.2 µM)
Klebsiella pneumoniae [4]; clinical isolate GN 4117
  MIC: 6.25 mg/L (≈ 10.2 µM)
Proteus mirabilis
  MIC: 3.13 mg/L (≈ 5.08 µM)
Proteus morganii
  MIC: 3.13 mg/L (≈ 5.08 µM)
Proteus vulgaris
  MIC: 1.56 mg/L (≈ 2.53 µM)
Proteus rettgeri
  MIC: 3.13 mg/L (≈ 5.08 µM)

## CCN1CCN(C(=O)NC(C(=O)NC2C(=O)N3C(C(=O)O)=C(COC(C)=O)CSC23)c2ccccc2)C(=O)C1=O (stereo not drawn) [compound 61]
Escherichia coli NIHJ
  MIC: < 0.79 mg/L
Klebsiella pneumoniae [1]
  MIC: 3.13 mg/L (≈ 5.46 µM)
Proteus vulgaris 3027
  MIC: 3.13 mg/L (≈ 5.46 µM)
[2]
  MIC: 25 mg/L (≈ 43.6 µM)
[3]
  MIC: < 0.79 mg/L
Staphylococcus aureus; clinical isolate F-1
  MIC: 3.13 mg/L (≈ 5.46 µM)
Staphylococcus aureus; clinical isolate F-2
  MIC: 1.56 mg/L (≈ 2.72 µM)
Staphylococcus aureus; clinical isolate F-3
  MIC: 1.56 mg/L (≈ 2.72 µM)
Staphylococcus aureus; clinical isolate F-4
  MIC: 3.13 mg/L (≈ 5.46 µM)
Staphylococcus aureus; clinical isolate F-5
  MIC: 50 mg/L (≈ 87.2 µM)
Staphylococcus aureus; clinical isolate MS 8588
  MIC: 1.56 mg/L (≈ 2.72 µM)
Staphylococcus aureus; clinical isolate MS 8596
  MIC: 1.56 mg/L (≈ 2.72 µM)
Staphylococcus aureus; clinical isolate MS 8619
  MIC: 1.56 mg/L (≈ 2.72 µM)
Staphylococcus aureus; clinical isolate MS 8684
  MIC: 1.56 mg/L (≈ 2.72 µM)
Staphylococcus aureus; clinical isolate MS 8713
  MIC: 1.56 mg/L (≈ 2.72 µM)
Escherichia coli; clinical isolate GN 3435
  MIC: 3.13 mg/L (≈ 5.46 µM)
Escherichia coli; clinical isolate GN 3452
  MIC: 6.25 mg/L (≈ 10.9 µM)
Escherichia coli; clinical isolate GN 3465
  MIC: 50 mg/L (≈ 87.2 µM)
Escherichia coli; clinical isolate GN 3481
  MIC: 3.13 mg/L (≈ 5.46 µM)
Escherichia coli; clinical isolate GN 3611
  MIC: 200 mg/L (≈ 349 µM)
Escherichia coli; clinical isolate K-1
  MIC: 3.13 mg/L (≈ 5.46 µM)
Escherichia coli; clinical isolate K-2
  MIC: 6.25 mg/L (≈ 10.9 µM)
Escherichia coli; clinical isolate K-3
  MIC: 100 mg/L (≈ 174 µM)
Escherichia coli; clinical isolate K-4
  MIC: 6.25 mg/L (≈ 10.9 µM)
Pseudomonas aeruginosa; clinical isolate GN 82
  MIC: 25 mg/L (≈ 43.6 µM)
Pseudomonas aeruginosa; clinical isolate GN 163
  MIC: 25 mg/L (≈ 43.6 µM)
Pseudomonas aeruginosa; clinical isolate GN 221
  MIC: 6.25 mg/L (≈ 10.9 µM)
Pseudomonas aeruginosa; clinical isolate GN 244
  MIC: 25 mg/L (≈ 43.6 µM)
Pseudomonas aeruginosa; clinical isolate GN 376
  MIC: 12.5 mg/L (≈ 21.8 µM)
Pseudomonas aeruginosa; clinical isolate GN 383
  MIC: 12.5 mg/L (≈ 21.8 µM)
Pseudomonas aeruginosa; clinical isolate GN 1035
  MIC: 100 mg/L (≈ 174 µM)
Pseudomonas aeruginosa; clinical isolate GN 1091
  MIC: 25 mg/L (≈ 43.6 µM)
Pseudomonas aeruginosa; clinical isolate GN 2565
  MIC: 50 mg/L (≈ 87.2 µM)
Pseudomonas aeruginosa; clinical isolate GN 2987
  MIC: 25 mg/L (≈ 43.6 µM)
Pseudomonas aeruginosa; clinical isolate S-1
  MIC: 50 mg/L (≈ 87.2 µM)
Pseudomonas aeruginosa; clinical isolate S-2
  MIC: 50 mg/L (≈ 87.2 µM)
Pseudomonas aeruginosa; clinical isolate S-3
  MIC: 50 mg/L (≈ 87.2 µM)
Pseudomonas aeruginosa; clinical isolate S-4
  MIC: 50 mg/L (≈ 87.2 µM)
Klebsiella pneumoniae [4]; clinical isolate GN 917
  MIC: 6.25 mg/L (≈ 10.9 µM)
Klebsiella pneumoniae [4]; clinical isolate GN 4081
  MIC: 12.5 mg/L (≈ 21.8 µM)
Klebsiella pneumoniae [4]; clinical isolate GN 4117
  MIC: 12.5 mg/L (≈ 21.8 µM)
Proteus mirabilis
  MIC: 1.56 mg/L (≈ 2.72 µM)
Proteus morganii
  MIC: 1.56 mg/L (≈ 2.72 µM)
Proteus vulgaris
  MIC: 0.8 mg/L (≈ 1.39 µM)
Proteus rettgeri
  MIC: 3.13 mg/L (≈ 5.46 µM)
